Data: the NIST ThermoML archive (doi:10.1016/j.jct.2012.07.024)
± gives the expanded uncertainty stated by the source.

Columns and labels:
[1] = refractive index (Na D-line) (dimensionless); conditions: 101.33 kPa, Liquid, Standard Abbe refractometry
[2] = 101.33 kPa, Liquid; for viscosity: Concentric cylinders viscometry; for mass density: Vibrating tube method

Row | Structure (SMILES) | refractive index ([1]; 288.15 K) | refractive index ([1]; 293.15 K) | refractive index ([1]; 298.15 K) | refractive index ([1]; 303.15 K) | refractive index ([1]; 308.15 K) | refractive index ([1]; 313.15 K) | refractive index ([1]; 318.15 K) | refractive index ([1]; 323.15 K) | refractive index ([1]; 328.15 K) | refractive index ([1]; 333.15 K) | viscosity ([2]; 288.15 K) [mPa·s] | mass density ([2]; 288.15 K) [kg/m3] | viscosity ([2]; 293.15 K) [mPa·s] | mass density ([2]; 293.15 K) [kg/m3] | viscosity ([2]; 298.15 K) [mPa·s] | mass density ([2]; 298.15 K) [kg/m3] | viscosity ([2]; 303.15 K) [mPa·s] | mass density ([2]; 303.15 K) [kg/m3] | viscosity ([2]; 308.15 K) [mPa·s] | mass density ([2]; 308.15 K) [kg/m3] | also measured
1 | OCCCO [propan-1,3-diol] | 1.44073 ± 0.00051 | 1.43932 ± 0.00051 | 1.43792 ± 0.00051 | 1.43654 ± 0.00051 | 1.43513 ± 0.00051 | 1.43375 ± 0.00051 | 1.43232 ± 0.00051 | 1.43087 ± 0.00051 | 1.42945 ± 0.00051 | 1.42803 ± 0.00051 | 68.06 ± 1.5 | 1055.96 ± 0.95 | 52.75 ± 1.2 | 1052.87 ± 0.95 | 41.97 ± 0.95 | 1049.76 ± 0.94 | 33.56 ± 0.76 | 1046.64 ± 0.93 | 27.15 ± 0.61 | 1043.5 ± 0.93 | viscosity ([2]; 313.15 K): 22.22 ± 0.5 mPa·s; mass density ([2]; 313.15 K): 1040.35 ± 0.92 kg/m3; viscosity ([2]; 318.15 K): 18.35 ± 0.41 mPa·s; mass density ([2]; 318.15 K): 1037.18 ± 0.91 kg/m3; viscosity ([2]; 323.15 K): 15.29 ± 0.34 mPa·s; mass density ([2]; 323.15 K): 1033.98 ± 0.91 kg/m3; viscosity ([2]; 328.15 K): 12.84 ± 0.29 mPa·s; mass density ([2]; 328.15 K): 1030.77 ± 0.9 kg/m3; viscosity ([2]; 333.15 K): 10.96 ± 0.25 mPa·s; mass density ([2]; 333.15 K): 1027.53 ± 0.89 kg/m3
2 | CC(O)CO (stereo not given) [1,2-propanediol] | 1.43425 ± 0.00033 | 1.4326 ± 0.00033 | 1.43093 ± 0.00033 | 1.42927 ± 0.00033 | 1.4276 ± 0.00033 | 1.4259 ± 0.00033 | 1.42422 ± 0.00033 | 1.42252 ± 0.00033 | 1.42078 ± 0.00033 | 1.41909 ± 0.00033 | 82.86 ± 1.8 | 1039.87 ± 0.14 | 59.84 ± 1.2 | 1036.25 ± 0.14 | 44.19 ± 0.9 | 1032.59 ± 0.13 | 33.29 ± 0.68 | 1028.88 ± 0.13 | 25.54 ± 0.52 | 1025.14 ± 0.13 | viscosity ([2]; 313.15 K): 19.92 ± 0.41 mPa·s; mass density ([2]; 313.15 K): 1021.35 ± 0.13 kg/m3; viscosity ([2]; 318.15 K): 15.79 ± 0.32 mPa·s; mass density ([2]; 318.15 K): 1017.52 ± 0.13 kg/m3; viscosity ([2]; 323.15 K): 12.76 ± 0.26 mPa·s; mass density ([2]; 323.15 K): 1013.66 ± 0.13 kg/m3; viscosity ([2]; 328.15 K): 10.35 ± 0.21 mPa·s; mass density ([2]; 328.15 K): 1009.75 ± 0.13 kg/m3; viscosity ([2]; 333.15 K): 8.586 ± 0.18 mPa·s; mass density ([2]; 333.15 K): 1005.79 ± 0.13 kg/m3
